Read-outs that look alike come from different tables or passages of the source.
Assays:
[1] = target: T1, NMDAR2B expressing HEK cell membranes (Homo sapiens, UniProt Q13224); test: NMDAR agonist assay, [3H]MK-801 binding, NMDAR2B; assay type: biochemical; details: 50 μM glutamate
T1 construct: expressed in transfected cells; host or cells: HEK cells (membrane extract)
Protocol: (§1) (nonequilibrium conditions).
(§2) The baseline value was determined from the best fit curve of the DPM values modeled using the GraphPad program and the log(agonist) vs. response(three parameters) algorithm was then subtracted from all points in the dataset.

[2] = Microsomal stability (Rat); assay type: in vitro ADME; details: rat microsomes
Protocol: (§3) Microsomal stability of disclosed compounds was investigated. The following table indicates the percent of compound remaining after 60 minutes.

[3] = Plasma stability (Human); assay type: in vitro ADME
Protocol: (§4) Plasma stability of disclosed compounds was investigated. The following table indicates the percent of compound remaining after 60 minutes.

[4] = tested on: positive (hedonic) 50-kHz ultrasonic vocalizations (USVs); test: Positive Emotional Learning (PEL) test; assay type: in vivo; details: rat, PO, dose 0.1 mg/kg, one hour after administration
Protocol: Experiments were conducted as described in Burgdorf et al., “The effect of selective breeding for differential rates of 50-kHz ultrasonic vocalizations on emotional behavior in rats,” Devel. […] Rat 50-kHz ultrasonic vocalization (hedonic USVs) is a validated model for the study of positive affective state and is best elicited by rough-and-tumble play.
The PEL assay measures the acquisition of positive (hedonic) 50-kHz ultrasonic vocalizations (USVs) to a social stimulus, heterospecific rough and tumble play stimulation. Heterospecific rough-and-tumble play stimulation was administered by the experimenter's right hand. One hour after administration of test compound or vehicle negative control (0.5% sodium carboxymethyl cellulose in 0.9% sterile saline vehicle), animals received 3 min of heterospecific rough-and-tumble play that consisted of alternating 15 sec blocks of heterospecific play and 15 sec of no-stimulation. […] Frequency modulated 50-kHz USVs that occurred during each of the no-stimulation periods were quantified to measure PEL. Animals were not habituated to play stimulation before testing. Positive emotional learning was measured during the conditioned stimulus (CS) trials preceding the tickle unconditioned stimulus (UCS) trials. Animals received 15 second trials consisting of 6 CS and 6 UCS trials each (3 min total).

[5] = Plasma stability (Rat); assay type: in vitro ADME
Protocol: as §4

[6] = Microsomal stability (Human); assay type: in vitro ADME; details: human microsomes
Protocol: as §3

[7] = IV pharmacokinetics; assay type: in vivo; set-up: C0: unit: ng/mL; details: Sprague Dawley rats, 2 mg/kg, normal saline; for Vd: read-out: Vss
Protocol: Sprague Dawley rats were dosed intravenously using a normal saline formulation containing 2 mg/kg of the compounds identified in the below table. The table below summarizes the results of the IV pharmacokinetics.

[8] = Oral pharmacokinetics (plasma, brain, CSF); assay type: in vivo; set-up: Cmax: unit: ng/mL; details: Sprague Dawley rats, per os, 10 mg/kg; for Tmax: normal saline
Protocol: In another experiment, Sprague Dawley rats were dosed per os using a normal saline formulation containing 10 mg/kg of the compounds identified in the table below. Plasma, brain, and CSF samples were analyzed at various time points over a 24 hour period. The table below summarizes the results of the oral pharmacokinetics.

[9] = target: T2, NMDAR2A expressing HEK cell membranes (Homo sapiens, UniProt Q12879); test: NMDAR agonist assay, [3H]MK-801 binding, NMDAR2A; assay type: biochemical; details: 50 μM glutamate
T2 construct: expressed in transfected cells; host or cells: HEK cells (membrane extract)
Protocol: as §1, §2

[10] = target: T3, NMDAR2B expressing HEK cell membranes (Homo sapiens, UniProt Q05586+Q13224); test: NMDAR agonist assay, [3H]MK-801 binding, NMDAR2B; assay type: biochemical; details: 50 μM glutamate; for EC50: [3H]MK-801 binding, read-out: NMDAR2B log EC50 (converted)
T3 construct: expressed in transfected cells; host or cells: HEK cells (membrane extract)
Protocol: as §1, §2

[11] = target: T4, NMDAR2A expressing HEK cell membranes (Homo sapiens, UniProt Q05586+Q12879); test: NMDAR agonist assay, [3H]MK-801 binding, NMDAR2A; assay type: biochemical; details: 50 μM glutamate; for EC50: [3H]MK-801 binding, read-out: NMDAR2A: log EC50 (converted)
T4 construct: expressed in transfected cells; host or cells: HEK cells (membrane extract)
Protocol: as §1, §2

[12] = target: T5, NMDAR2C expressing HEK cell membranes (Homo sapiens, UniProt Q05586+Q14957); test: NMDAR agonist assay, [3H]MK-801 binding, NMDAR2C; assay type: biochemical; details: 50 μM glutamate; for EC50: [3H]MK-801 binding, read-out: NMDAR2C: log EC50 (converted); for Emax: relative to 1 mM glycine, read-out: NMDAR2C A: % maximal [3H]MK-801 binding relative to 1 mM glycine
T5 construct: expressed in transfected cells; host or cells: HEK cells (membrane extract)
Protocol: as §1, §2

[13] = target: T6, NMDAR2D expressing HEK cell membranes (Homo sapiens, UniProt O15399+Q05586); test: NMDAR agonist assay, [3H]MK-801 binding, NMDAR2D; assay type: biochemical; details: 50 μM glutamate
T6 construct: expressed in transfected cells; host or cells: HEK cells (membrane extract)
Protocol: as §1, §2

[14] = Sprague Dawley, rat, in vivo, iv
[15] = Sprague Dawley, rat, in vivo, iv, read-out: C0
[16] = Sprague Dawley, rat, plasma, po
[17] = Sprague Dawley, rat, plasma, po, read-out: Tmax
[18] = Sprague Dawley, rat, plasma, po, plasma, read-out: Cmax

T2 sequence (Q12879 23-1464, other chains not shown): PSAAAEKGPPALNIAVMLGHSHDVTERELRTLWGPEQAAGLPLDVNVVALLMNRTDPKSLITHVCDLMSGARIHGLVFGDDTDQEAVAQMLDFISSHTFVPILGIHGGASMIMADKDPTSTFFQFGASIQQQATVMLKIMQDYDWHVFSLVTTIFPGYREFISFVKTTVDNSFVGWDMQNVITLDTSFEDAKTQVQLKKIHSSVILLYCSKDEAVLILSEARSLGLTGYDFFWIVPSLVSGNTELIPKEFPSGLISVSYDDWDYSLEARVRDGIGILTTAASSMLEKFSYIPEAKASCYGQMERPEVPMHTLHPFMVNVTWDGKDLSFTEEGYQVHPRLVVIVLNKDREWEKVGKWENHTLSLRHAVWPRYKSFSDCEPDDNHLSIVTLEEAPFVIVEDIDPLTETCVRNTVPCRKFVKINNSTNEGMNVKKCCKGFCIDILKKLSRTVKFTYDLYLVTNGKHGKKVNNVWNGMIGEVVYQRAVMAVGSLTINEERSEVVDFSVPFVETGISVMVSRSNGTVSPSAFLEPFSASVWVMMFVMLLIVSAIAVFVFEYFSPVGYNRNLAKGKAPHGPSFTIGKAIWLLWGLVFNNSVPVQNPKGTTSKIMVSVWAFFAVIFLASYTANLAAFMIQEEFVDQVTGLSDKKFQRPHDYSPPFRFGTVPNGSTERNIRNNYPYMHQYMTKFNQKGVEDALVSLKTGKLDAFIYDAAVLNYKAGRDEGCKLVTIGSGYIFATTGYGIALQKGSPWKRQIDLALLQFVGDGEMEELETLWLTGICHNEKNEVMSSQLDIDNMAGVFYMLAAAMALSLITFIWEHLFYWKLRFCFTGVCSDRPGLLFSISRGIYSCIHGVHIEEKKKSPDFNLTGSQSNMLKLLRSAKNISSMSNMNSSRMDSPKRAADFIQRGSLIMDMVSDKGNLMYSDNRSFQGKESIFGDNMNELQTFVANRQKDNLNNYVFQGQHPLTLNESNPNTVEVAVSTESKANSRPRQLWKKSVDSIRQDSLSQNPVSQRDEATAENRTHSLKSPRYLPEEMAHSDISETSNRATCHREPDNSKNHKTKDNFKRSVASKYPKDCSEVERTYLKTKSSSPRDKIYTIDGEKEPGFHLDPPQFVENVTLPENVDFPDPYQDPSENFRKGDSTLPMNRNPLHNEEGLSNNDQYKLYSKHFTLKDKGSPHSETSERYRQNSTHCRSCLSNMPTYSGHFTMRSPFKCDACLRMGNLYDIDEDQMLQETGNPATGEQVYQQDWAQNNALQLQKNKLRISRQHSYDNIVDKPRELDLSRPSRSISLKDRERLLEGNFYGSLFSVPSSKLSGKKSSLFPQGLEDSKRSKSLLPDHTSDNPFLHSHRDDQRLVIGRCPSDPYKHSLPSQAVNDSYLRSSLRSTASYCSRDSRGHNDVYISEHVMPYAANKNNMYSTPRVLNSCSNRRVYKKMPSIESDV
T4 sequence (Q12879 23-1464, other chains not shown): as above
T5 sequence (Q14957 20-1233, other chains not shown): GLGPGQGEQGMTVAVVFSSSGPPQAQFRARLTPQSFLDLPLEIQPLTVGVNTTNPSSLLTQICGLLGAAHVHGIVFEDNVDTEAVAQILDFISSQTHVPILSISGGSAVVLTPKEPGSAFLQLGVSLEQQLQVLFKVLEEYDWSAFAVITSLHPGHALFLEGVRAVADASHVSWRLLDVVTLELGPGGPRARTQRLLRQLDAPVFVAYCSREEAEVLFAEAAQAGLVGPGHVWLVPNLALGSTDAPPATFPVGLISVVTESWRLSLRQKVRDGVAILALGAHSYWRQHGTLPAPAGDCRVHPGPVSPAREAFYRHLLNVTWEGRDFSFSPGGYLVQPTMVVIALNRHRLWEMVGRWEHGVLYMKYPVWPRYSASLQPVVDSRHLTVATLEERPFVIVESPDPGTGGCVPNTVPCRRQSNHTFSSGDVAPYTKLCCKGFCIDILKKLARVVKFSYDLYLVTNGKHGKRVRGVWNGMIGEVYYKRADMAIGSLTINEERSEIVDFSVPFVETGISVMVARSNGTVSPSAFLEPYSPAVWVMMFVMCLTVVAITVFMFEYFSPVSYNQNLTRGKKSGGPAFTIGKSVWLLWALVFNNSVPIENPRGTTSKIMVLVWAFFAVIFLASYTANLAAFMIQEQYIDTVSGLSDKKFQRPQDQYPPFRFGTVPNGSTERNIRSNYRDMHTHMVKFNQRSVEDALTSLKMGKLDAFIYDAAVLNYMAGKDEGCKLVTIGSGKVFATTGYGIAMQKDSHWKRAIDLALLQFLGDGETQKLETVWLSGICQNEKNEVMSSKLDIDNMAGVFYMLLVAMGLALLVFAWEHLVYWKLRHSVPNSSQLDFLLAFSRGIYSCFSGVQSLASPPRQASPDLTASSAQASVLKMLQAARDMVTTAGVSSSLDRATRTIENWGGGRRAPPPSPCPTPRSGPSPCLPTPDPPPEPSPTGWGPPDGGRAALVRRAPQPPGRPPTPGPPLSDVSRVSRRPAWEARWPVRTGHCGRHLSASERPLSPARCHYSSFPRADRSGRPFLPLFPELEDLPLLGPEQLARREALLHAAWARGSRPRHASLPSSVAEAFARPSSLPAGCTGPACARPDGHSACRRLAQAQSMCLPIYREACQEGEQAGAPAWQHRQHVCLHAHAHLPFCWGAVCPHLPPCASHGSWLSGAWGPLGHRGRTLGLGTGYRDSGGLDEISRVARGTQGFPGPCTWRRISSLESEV

## C[C@@H](O)[C@H](NC(=O)C1CCC2(CNC2=O)N1)C(N)=O (single isomer, unassigned) [AQ-2]
[1]; [3H]MK-801 binding, read-out: NMDAR2B log EC50 (converted)
  EC50: < 1 nM
[1]
  NMDAR2B: % maximal [3H]MK-801 binding relative to 1 mM glycine: + (<100%=+)
[2]
  Microsomal (Rat): percent of compound remaining after 60 minutes: 100%
[3]
  Plasma (Human): percent of compound remaining after 60 minutes: 100%
[4]; 0.1 mg/kg
  Max Effect (mean number of 50 kHz USVs per 15 seconds): * (*: 6-10.9)
[5]
  Plasma (Rat): percent of compound remaining after 60 minutes: 95%
[6]
  Microsomal (Human): percent of compound remaining after 60 minutes: 100%
[7]
  AUClast: 2601.7 ng·h/mL
  C0: 5143.2 ng/mL
  Cl: 12.82 mL/min/kg
  T1/2: 35.4 min
  Vss: 0.36 L/kg
[8]
  % F: 5%
  AUClast: 599.6 ng·h/mL
  CSF Cmax: 0 ng/mL
  Brain Cmax: 0 ng/mL
  Tmax: 64.8 min
[8]; plasma
  Cmax: 144.2 ng/mL
[9]; [3H]MK-801 binding, read-out: NMDAR2A: log EC50 (converted)
  EC50: < 1 nM
[9]
  NMDAR2A: % maximal [3H]MK-801 binding relative to 1 mM glycine: + (<100%=+)

## CC(C)C(=O)N1C(C(=O)N[C@H](C(N)=O)[C@@H](C)O)CCC12CNC2=O (single isomer, unassigned) [AS]
[10]
  EC50: < 1 nM
[1]
  NMDAR2B: % maximal [3H]MK-801 binding relative to 1 mM glycine: + (<100%=+)
[2]
  Microsomal (Rat): percent of compound remaining after 60 minutes: 100%
[3]
  Plasma (Human): percent of compound remaining after 60 minutes: 100%
[4]
  Max Effect (mean number of 50 kHz USVs per 15 seconds): ** (**: 11-16.9)
[5]
  Plasma (Rat): percent of compound remaining after 60 minutes: 100%
[6]
  Microsomal (Human): percent of compound remaining after 60 minutes: 84%
[7]; [14]
  AUC(0-t): 2800 ng·h/mL
  clearance: 11.8 mL/min/kg
  half-life: 190 min
  Vd: 0.61 L/kg
[7]; [15]
  C0: 2230 ng/mL
[8]
  CSF Cmax: 0 ng/mL
  Brain Cmax: 0 ng/mL
[8]; [16]
  AUC(0-t): 367 ng·h/mL
  bioavailability: 3%
[8]; [17]
  Tmax: 49.8 min
[8]; [18]
  Cmax: 75.4 ng/mL
[11]
  EC50: < 1 nM
[9]
  NMDAR2A: % maximal [3H]MK-801 binding relative to 1 mM glycine: + (<100%=+)

## CC(C)(C)OC(=O)N1CC2(CN(OCc3ccccc3)C2=O)CC12CN(OCc1ccccc1)C2=O (single isomer, unassigned) [AW, tert-butyl 2,8-bis(benzyloxy)-1,7-dioxo-2,8,10-triazadispiro[3.1.36.24]undecane-10-carboxylate]
[1]
  NMDAR2B: % maximal [3H]MK-801 binding relative to 1 mM glycine: ++ (>100%=++)
[2]
  Microsomal (Rat): percent of compound remaining after 60 minutes: 0%
[3]
  Plasma (Human): percent of compound remaining after 60 minutes: 90%
[4]
  Max Effect (mean number of 50 kHz USVs per 15 seconds): ** (**: 11-16.9)
[5]
  Plasma (Rat): percent of compound remaining after 60 minutes: 0%
[12]
  EC50: < 1 nM
  Emax: < 100%
[13]; [3H]MK-801 binding, read-out: NMDAR2D: log EC50 (converted)
  EC50: < 1 nM
[13]; relative to 1 mM glycine, read-out: NMDAR2D: % maximal [3H]MK-801 binding relative to 1 mM glycine
  Emax: < 100%
[6]
  Microsomal (Human): percent of compound remaining after 60 minutes: 2%
[11]
  EC50: < 1 nM
[9]
  NMDAR2A: % maximal [3H]MK-801 binding relative to 1 mM glycine: + (<100%=+)

## CC(C)(C)OC(=O)N1C(C(N)=O)CCC12CN(OCc1ccccc1)C2=O (single isomer, unassigned) [BH, tert-butyl 2-(benzyloxy)-6-carbamoyl-1-oxo-2,5-diazaspiro[3.4]octane-5-carboxylate]
[10]
  EC50: < 1 nM
[1]
  NMDAR2B: % maximal [3H]MK-801 binding relative to 1 mM glycine: + (<100%=+)
[2]
  Microsomal (Rat): percent of compound remaining after 60 minutes: 100%
[3]
  Plasma (Human): percent of compound remaining after 60 minutes: 90%
[4]
  Max Effect (mean number of 50 kHz USVs per 15 seconds): ** (**: 11-16.9)
[5]
  Plasma (Rat): percent of compound remaining after 60 minutes: 95%
[12]
  EC50: < 1 nM
  Emax: > 100%
[6]
  Microsomal (Human): percent of compound remaining after 60 minutes: 100%
[7]; [14]
  AUC(0-t): 656 ng·h/mL
  clearance: 50.5 mL/min/kg
  half-life: 20.4 min
  Vd: 0.82 L/kg
[7]; [15]
  C0: 2390 ng/mL
[8]
  CSF Cmax: 36.66 ng/mL
  Brain Cmax: 0 ng/mL
[8]; [16]
  AUC(0-t): 614 ng·h/mL
  bioavailability: 18%
[8]; [17]
  Tmax: 15 min
[8]; [18]
  Cmax: 859 ng/mL
[11]
  EC50: > 100 nM
[9]
  NMDAR2A: % maximal [3H]MK-801 binding relative to 1 mM glycine: − (−=0)

## CC(=O)N1C(C(=O)N[C@H](C(N)=O)[C@@H](C)O)CCC12CNC2=O (stereo partly drawn) [AO, 5-acetyl-N-((2S,3R)-1-amino-3-hydroxy-1-oxobutan-2-yl)-1-oxo-2,5-diazaspiro[3.4]octane-6-carboxamide]
[10]
  EC50: < 1 nM
[10]; relative to 1 mM glycine, read-out: NMDAR2B: % maximal [3H]MK-801 binding relative to 1 mM glycine
  Emax: < 100%
[2]
  Microsomal (Rat): percent of compound remaining after 60 minutes: 100%
[3]
  Plasma (Human): percent of compound remaining after 60 minutes: 100%
[4]
  Max Effect (mean number of 50 kHz USVs per 15 seconds): ** (**: 11-16.9)
[5]
  Plasma (Rat): percent of compound remaining after 60 minutes: 93%
[6]
  Microsomal (Human): percent of compound remaining after 60 minutes: 100%
[7]; [14]
  AUC(0-t): 4430 ng·h/mL
  clearance: 7.59 mL/min/kg
  half-life: 130 min
  Vd: 0.22 L/kg
[7]; [15]
  C0: 11900 ng/mL
[8]
  CSF Cmax: 17.89 ng/mL
  Brain Cmax: 0 ng/mL
[8]; [16]
  AUC(0-t): 1320 ng·h/mL
  bioavailability: 6%
[8]; [17]
  Tmax: 160 min
[8]; [18]
  Cmax: 247 ng/mL
[11]
  EC50: > 100 nM
[11]; relative to 1 mM glycine, read-out: NMDAR2A: % maximal [3H]MK-801 binding relative to 1 mM glycine
  Emax: 0%

— patent US11028095B2, “Spiro-lactam and bis-spiro-lactam NMDA receptor modulators and uses thereof” (Aptinyx Inc., priority 2016, dated 2021)
